From PubChem BioAssay AID226 (DTP/NCI, 2004)
Several values for one entry are separate records, joined by “and”; a condition that tells them apart may be missing. Equal values may be shown once. Inconclusive results and toxic doses are left out.

Test system: B6C3F1 mice, intracerebral ependymoblastoma, median survival T/C
Assay: NCI In Vivo Anticancer Drug Screen. Data for tumor model Ependymoblastoma (intracerebral) in B6C3F1 mice
Conditions: endpoint: median survival time, higher = longer survival
Experimental: The antitumor activity of compounds was measured in mice bearing transplantable tumors. Survival or tumor size were measured and the results are expressed as the measurement made in the treated group (T) divided by the measurement made in the vehicle treated control group (C). The tumor model used in this assay is Ependymoblastoma (intracerebral) in B6C3F1 mice

[1] = dose: 1.0 mg/kg/injection, schedule: Q01DX005 (ip), vehicle: saline
[2] = dose: 1.0 mg/kg/injection, schedule: Q01DX005 (ip), vehicle: water
[3] = dose: 2.0 mg/kg/injection, schedule: Q01DX005 (ip), vehicle: saline
[4] = dose: 2.0 mg/kg/injection, schedule: Q01DX005 (ip), vehicle: water
[5] = dose: 4.0 mg/kg/injection, schedule: Q01DX005 (ip), vehicle: saline
[6] = dose: 8.0 mg/kg/injection, schedule: Q01DX005 (ip), vehicle: saline
[7] = dose: 50.0 mg/kg/injection, schedule: Q01DX005 (ip), vehicle: saline
[8] = dose: 100.0 mg/kg/injection, schedule: Q01DX005 (ip), vehicle: saline
[9] = dose: 200.0 mg/kg/injection, schedule: Q01DX005 (ip), vehicle: saline
[10] = dose: 0.5 mg/kg/injection, schedule: Q01DX005 (ip), vehicle: saline
[11] = dose: 64.0 mg/kg/injection, schedule: Q01DX005 (ip), vehicle: saline with Tween-80
[12] = dose: 128.0 mg/kg/injection, schedule: Q01DX005 (ip), vehicle: saline with Tween-80

COc1cc(NS(C)(=O)=O)ccc1Nc1c2ccccc2nc2ccccc12
T/C (dose: 1.0 mg/kg/injection, schedule: Q01DX005 (ip), vehicle: Klucel (hydroxypropylcellulose) (HPC)): 110 % of control | T/C [1]: 103 % of control and 104 % of control | T/C [2]: 94 % of control and 96 % of control (2×) | T/C (dose: 2.0 mg/kg/injection, schedule: Q01DX005 (ip), vehicle: Klucel (hydroxypropylcellulose) (HPC)): 99 % of control | T/C [3]: 107 % of control and 112 % of control | T/C [4]: 94 % of control and 100 % of control and 101 % of control | T/C (dose: 4.0 mg/kg/injection, schedule: Q01DX005 (ip), vehicle: Klucel (hydroxypropylcellulose) (HPC)): 103 % of control | T/C [5]: 103 % of control | T/C (dose: 4.0 mg/kg/injection, schedule: Q01DX005 (ip), vehicle: water): 96 % of control and 100 % of control and 108 % of control | T/C [6]: 106 % of control and 112 % of control | T/C (dose: 8.0 mg/kg/injection, schedule: Q01DX005 (ip), vehicle: water): 100 % of control and 107 % of control and 112 % of control

O=C(NCCCl)NCCCl
T/C (dose: 6.25 mg/kg/injection, schedule: Q01DX005 (ip), vehicle: Klucel (hydroxypropylcellulose) (HPC)): 102 % of control and 105 % of control | T/C (dose: 12.5 mg/kg/injection, schedule: Q01DX005 (ip), vehicle: Klucel (hydroxypropylcellulose) (HPC)): 102 % of control and 104 % of control | T/C (dose: 25.0 mg/kg/injection, schedule: Q01DX005 (ip), vehicle: Klucel (hydroxypropylcellulose) (HPC)): 93 % of control and 99 % of control | T/C (dose: 50.0 mg/kg/injection, schedule: Q01DX005 (ip), vehicle: Klucel (hydroxypropylcellulose) (HPC)): 92 % of control and 103 % of control | T/C (dose: 100.0 mg/kg/injection, schedule: Q01DX005 (ip), vehicle: Klucel (hydroxypropylcellulose) (HPC)): 98 % of control and 107 % of control | T/C (dose: 200.0 mg/kg/injection, schedule: Q01DX005 (ip), vehicle: Klucel (hydroxypropylcellulose) (HPC)): 96 % of control and 107 % of control | T/C (dose: 400.0 mg/kg/injection, schedule: Q01DX005 (ip), vehicle: Klucel (hydroxypropylcellulose) (HPC)): 108 % of control and 87 % of control

CN(C)C=O
T/C [7]: 92 % of control and 112 % of control | T/C [8]: 96 % of control and 98 % of control and 115 % of control | T/C [9]: 94 % of control and 99 % of control and 109 % of control | T/C (dose: 400.0 mg/kg/injection, schedule: Q01DX005 (ip), vehicle: saline): 94 % of control and 99 % of control and 113 % of control | T/C (dose: 800.0 mg/kg/injection, schedule: Q01DX005 (ip), vehicle: saline): 93 % of control and 102 % of control and 105 % of control | T/C (dose: 1600.0 mg/kg/injection, schedule: Q01DX005 (ip), vehicle: saline): 93 % of control | T/C (dose: 2400.0 mg/kg/injection, schedule: Q01DX005 (ip), vehicle: saline): 97 % of control

COc1cccc2c1C(=O)c1c(O)c3c(c(O)c1C2=O)C[C@@](O)(C(=O)CO)C[C@@H]3OC1CC(N)C(O)C(C)O1 (some centres undefined)
T/C (dose: 0.06 mg/kg/injection, schedule: Q03HX008 (ip), vehicle: saline): 104 % of control | T/C (dose: 0.12 mg/kg/injection, schedule: Q01DX005 (ip), vehicle: water): 96 % of control | T/C (dose: 0.12 mg/kg/injection, schedule: Q03HX008 (ip), vehicle: saline): 100 % of control and 113 % of control | T/C (dose: 0.25 mg/kg/injection, schedule: Q01DX005 (ip), vehicle: saline): 94 % of control and 113 % of control and 114 % of control | T/C (dose: 0.25 mg/kg/injection, schedule: Q01DX005 (ip), vehicle: water): 102 % of control | T/C (dose: 0.25 mg/kg/injection, schedule: Q03HX008 (ip), vehicle: saline): 106 % of control and 120 % of control | T/C [10]: 103 % of control and 105 % of control and 114 % of control | T/C (dose: 0.5 mg/kg/injection, schedule: Q01DX005 (ip), vehicle: suspension in saline): 103 % of control | T/C (dose: 0.5 mg/kg/injection, schedule: Q01DX005 (ip), vehicle: water): 92 % of control and 113 % of control | T/C (dose: 0.5 mg/kg/injection, schedule: Q03HX008 (ip), vehicle: saline): 114 % of control | T/C [1]: 109 % of control and 110 % of control and 116 % of control | T/C (dose: 1.0 mg/kg/injection, schedule: Q01DX005 (ip), vehicle: suspension in saline): 108 % of control | T/C [2]: 102 % of control and 116 % of control | T/C [3]: 116 % of control and 118 % of control | T/C (dose: 2.0 mg/kg/injection, schedule: Q01DX005 (ip), vehicle: suspension in saline): 121 % of control | T/C [4]: 107 % of control and 113 % of control | T/C (dose: 4.0 mg/kg/injection, schedule: Q01DX001 (oral), vehicle: saline): 100 % of control | T/C [5]: 100 % of control and 118 % of control and 86 % of control | T/C (dose: 8.0 mg/kg/injection, schedule: Q01DX001 (oral), vehicle: saline): 96 % of control | T/C (dose: 16.0 mg/kg/injection, schedule: Q01DX001 (oral), vehicle: saline): 103 % of control | T/C (dose: 32.0 mg/kg/injection, schedule: Q01DX001 (oral), vehicle: saline): 89 % of control

CN(C)c1nc(N(C)C)nc(N(C)C)n1
T/C [7]: 94 % of control | T/C (dose: 100.0 mg/kg/injection, schedule: Q01DX005 (ip), vehicle: saline with Tween-80): 100 % of control | T/C [8]: 94 % of control | T/C (dose: 200.0 mg/kg/injection, schedule: Q01DX001 (ip), vehicle: saline with Tween-80): 92 % of control | T/C (dose: 200.0 mg/kg/injection, schedule: Q01DX001 (ip), vehicle: saline): 96 % of control and 99 % of control and 104 % of control | T/C (dose: 200.0 mg/kg/injection, schedule: Q01DX005 (ip), vehicle: saline with Tween-80): 99 % of control | T/C [9]: 101 % of control | T/C (dose: 400.0 mg/kg/injection, schedule: Q01DX001 (ip), vehicle: saline with Tween-80): 100 % of control | T/C (dose: 400.0 mg/kg/injection, schedule: Q01DX001 (ip), vehicle: saline): 97 % of control and 107 % of control and 89 % of control | T/C (dose: 400.0 mg/kg/injection, schedule: Q01DX005 (ip), vehicle: saline with Tween-80): 87 % of control | T/C (dose: 800.0 mg/kg/injection, schedule: Q01DX001 (ip), vehicle: saline with Tween-80): 100 % of control | T/C (dose: 800.0 mg/kg/injection, schedule: Q01DX001 (ip), vehicle: saline): 92 % of control (2×) and 96 % of control | T/C (dose: 1600.0 mg/kg/injection, schedule: Q01DX001 (ip), vehicle: saline): 106 % of control

O=c1[nH]cc(F)c(=O)[nH]1
T/C [10]: 108 % of control | T/C [1]: 108 % of control | T/C [3]: 111 % of control | T/C [5]: 113 % of control | T/C [6]: 105 % of control | T/C (dose: 16.0 mg/kg/injection, schedule: Q01DX005 (ip), vehicle: saline): 105 % of control | T/C (dose: 32.0 mg/kg/injection, schedule: Q01DX005 (ip), vehicle: saline): 120 % of control

COc1cc2c(cc1O)N=C[C@@H]1CCC(O)N1C2=O (mixture of isomers)
T/C (dose: 2.0 mg/kg/injection, schedule: Q01DX005 (ip), vehicle: distilled water + Tween-80): 95 % of control | T/C (dose: 4.0 mg/kg/injection, schedule: Q01DX005 (ip), vehicle: distilled water + Tween-80): 92 % of control | T/C (dose: 8.0 mg/kg/injection, schedule: Q01DX005 (ip), vehicle: distilled water + Tween-80): 87 % of control

O=C(O)C(O)C(O)C(=O)O.[NH-]C1CCCCC1[NH-].[Pt+2] (centres undefined)
T/C (dose: 2.0 mg/kg/injection, schedule: Q01DX005 (ip), vehicle: dextrose): 96 % of control | T/C (dose: 4.0 mg/kg/injection, schedule: Q01DX005 (ip), vehicle: dextrose): 110 % of control

O=c1ccn(C2OC(CO)C(O)C2O)c(=O)[nH]1 (centres undefined)
T/C [11]: 113 % of control | T/C (dose: 64.0 mg/kg/injection, schedule: Q01DX005 (ip), vehicle: saline): 109 % of control | T/C [12]: 90 % of control | T/C (dose: 128.0 mg/kg/injection, schedule: Q01DX005 (ip), vehicle: saline): 94 % of control | T/C (dose: 256.0 mg/kg/injection, schedule: Q01DX005 (ip), vehicle: saline with Tween-80): 109 % of control | T/C (dose: 256.0 mg/kg/injection, schedule: Q01DX005 (ip), vehicle: saline): 100 % of control | T/C (dose: 512.0 mg/kg/injection, schedule: Q01DX005 (ip), vehicle: saline with Tween-80): 99 % of control | T/C (dose: 512.0 mg/kg/injection, schedule: Q01DX005 (ip), vehicle: saline): 94 % of control | T/C (dose: 1024.0 mg/kg/injection, schedule: Q01DX005 (ip), vehicle: saline with Tween-80): 99 % of control | T/C (dose: 1024.0 mg/kg/injection, schedule: Q01DX005 (ip), vehicle: saline): 96 % of control

CCC(C)N(C)/N=N/c1nc[nH]c1C(N)=O (centres undefined)
T/C (dose: 32.0 mg/kg/injection, schedule: Q01DX005 (ip), vehicle: saline with Tween-80): 151 % of control | T/C [11]: 153 % of control | T/C [12]: 153 % of control
